Reference: the kinase profiling compilation of Christmann-Franck et al. (2016)
“And” between values parts separate entries of the source, which are not always exact repeats. Identical values can stand only once.

Key:
Experiment in all cases: radiometric filter-binding kinase assay, Kinase HotSpot
Conditions in all cases: compound 0.5 µM; ATP 10 µM
ADRBK2 (human) = ADRBK2 (human) (UniProt P35626)
AKT3 (human) = AKT3 (human) (UniProt Q9Y243)
CAMK1 (human) = CAMK1 (human) (UniProt Q14012)
CAMK2A (human) = CAMK2A (human) (UniProt Q9UQM7)
CDK6 CCND1 (human) = CDK6 CCND1 (human) (UniProt Q00534+P24385)
CLK2 (human) = CLK2 (human) (UniProt P49760)
CSNK1E (human) = CSNK1E (human) (UniProt P49674)
DCLK2 (human) = DCLK2 (human) (UniProt Q8N568)
DSTYK (human) = DSTYK (human) (UniProt Q6XUX3)
EPHA1 (human) = EPHA1 (human) (UniProt P21709)
GSG2 (human) = GSG2 (human) (UniProt Q8TF76)
INSR (human) = INSR (human) (UniProt P06213)
INSR (human), sequence (P06213 whole entry, looked up): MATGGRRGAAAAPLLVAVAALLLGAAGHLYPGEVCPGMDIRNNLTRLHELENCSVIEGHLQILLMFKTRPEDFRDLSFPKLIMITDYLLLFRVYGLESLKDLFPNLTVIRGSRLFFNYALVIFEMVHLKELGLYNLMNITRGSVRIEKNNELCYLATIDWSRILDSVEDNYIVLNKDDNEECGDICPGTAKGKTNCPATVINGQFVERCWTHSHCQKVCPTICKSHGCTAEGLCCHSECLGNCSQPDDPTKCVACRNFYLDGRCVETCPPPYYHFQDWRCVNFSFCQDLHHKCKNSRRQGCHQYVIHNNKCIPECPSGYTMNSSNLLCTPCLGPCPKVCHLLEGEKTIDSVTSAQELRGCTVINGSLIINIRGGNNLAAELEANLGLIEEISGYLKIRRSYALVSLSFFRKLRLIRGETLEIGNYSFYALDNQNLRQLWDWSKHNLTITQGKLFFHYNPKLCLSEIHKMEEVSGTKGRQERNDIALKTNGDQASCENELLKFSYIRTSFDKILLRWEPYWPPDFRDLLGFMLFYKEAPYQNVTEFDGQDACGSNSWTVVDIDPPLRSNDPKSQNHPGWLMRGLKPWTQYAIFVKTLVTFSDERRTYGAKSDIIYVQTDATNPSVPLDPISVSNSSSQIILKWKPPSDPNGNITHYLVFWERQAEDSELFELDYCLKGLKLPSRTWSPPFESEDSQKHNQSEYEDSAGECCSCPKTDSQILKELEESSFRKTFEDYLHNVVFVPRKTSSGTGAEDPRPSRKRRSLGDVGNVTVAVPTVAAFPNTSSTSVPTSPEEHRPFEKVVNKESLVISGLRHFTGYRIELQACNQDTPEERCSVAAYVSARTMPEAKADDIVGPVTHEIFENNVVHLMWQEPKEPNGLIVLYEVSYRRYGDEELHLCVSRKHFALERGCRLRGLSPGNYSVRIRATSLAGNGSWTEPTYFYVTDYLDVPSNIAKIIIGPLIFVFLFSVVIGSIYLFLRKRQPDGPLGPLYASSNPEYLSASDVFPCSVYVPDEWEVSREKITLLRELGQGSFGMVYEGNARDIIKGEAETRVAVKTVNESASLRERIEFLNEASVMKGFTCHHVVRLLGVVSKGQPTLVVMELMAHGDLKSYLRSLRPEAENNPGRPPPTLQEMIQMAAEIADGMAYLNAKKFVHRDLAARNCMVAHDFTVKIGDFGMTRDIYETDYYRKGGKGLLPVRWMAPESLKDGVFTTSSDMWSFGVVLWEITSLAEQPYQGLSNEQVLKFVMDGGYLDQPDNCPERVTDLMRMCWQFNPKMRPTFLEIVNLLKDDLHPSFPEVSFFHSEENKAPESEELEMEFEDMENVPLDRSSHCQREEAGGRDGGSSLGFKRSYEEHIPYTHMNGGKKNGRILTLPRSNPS

IRAK4 (human) = IRAK4 (human) (UniProt Q9NWZ3)
IRAK4 (human), sequence (Q9NWZ3 whole entry, looked up): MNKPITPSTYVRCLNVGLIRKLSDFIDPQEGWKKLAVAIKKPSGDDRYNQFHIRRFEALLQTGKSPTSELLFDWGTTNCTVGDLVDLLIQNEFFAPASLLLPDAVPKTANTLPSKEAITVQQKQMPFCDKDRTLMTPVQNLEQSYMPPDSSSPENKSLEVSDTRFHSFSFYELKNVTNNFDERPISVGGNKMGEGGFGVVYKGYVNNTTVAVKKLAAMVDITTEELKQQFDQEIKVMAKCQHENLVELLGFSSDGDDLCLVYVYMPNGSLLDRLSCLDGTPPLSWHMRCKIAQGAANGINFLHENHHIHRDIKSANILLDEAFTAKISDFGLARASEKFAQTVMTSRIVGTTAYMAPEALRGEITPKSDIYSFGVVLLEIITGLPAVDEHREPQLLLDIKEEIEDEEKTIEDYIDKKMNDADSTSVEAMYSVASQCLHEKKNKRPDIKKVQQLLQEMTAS

LTK (human) = LTK (human) (UniProt P29376)
LYN (human) = LYN (human) (UniProt P07948)
LYN (human), sequence (P07948 whole entry, looked up): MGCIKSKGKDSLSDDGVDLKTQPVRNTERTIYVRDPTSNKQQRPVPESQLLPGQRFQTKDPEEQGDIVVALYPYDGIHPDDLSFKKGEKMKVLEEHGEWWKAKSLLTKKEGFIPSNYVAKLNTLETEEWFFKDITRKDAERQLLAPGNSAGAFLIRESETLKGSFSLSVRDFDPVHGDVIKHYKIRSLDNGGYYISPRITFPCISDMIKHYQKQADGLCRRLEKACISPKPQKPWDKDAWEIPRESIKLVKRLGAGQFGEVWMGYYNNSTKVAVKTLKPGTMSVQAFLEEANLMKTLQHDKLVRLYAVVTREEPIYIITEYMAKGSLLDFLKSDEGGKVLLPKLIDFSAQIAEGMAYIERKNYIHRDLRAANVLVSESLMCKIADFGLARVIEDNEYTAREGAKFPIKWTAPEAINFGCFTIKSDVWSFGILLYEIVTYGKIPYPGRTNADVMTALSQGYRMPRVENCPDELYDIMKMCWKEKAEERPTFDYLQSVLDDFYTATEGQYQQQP

MAP3K3 (human) = MAP3K3 (human) (UniProt Q99759)
MAP3K7 TAB1 (human) = MAP3K7 TAB1 (human) (UniProt O43318+Q15750)
MAP4K2 (human) = MAP4K2 (human) (UniProt Q12851)
MAPK10 (human) = MAPK10 (human) (UniProt P53779)
MAPK9 (human) = MAPK9 (human) (UniProt P45984)
MAPKAPK2 (human) = MAPKAPK2 (human) (UniProt P49137)
MELK (human) = MELK (human) (UniProt Q14680)
MUSK (human) = MUSK (human) (UniProt O15146)
MYLK (human) = MYLK (human) (UniProt Q15746)
NEK3 (human) = NEK3 (human) (UniProt P51956)
NEK3 (human), sequence (P51956 whole entry, looked up): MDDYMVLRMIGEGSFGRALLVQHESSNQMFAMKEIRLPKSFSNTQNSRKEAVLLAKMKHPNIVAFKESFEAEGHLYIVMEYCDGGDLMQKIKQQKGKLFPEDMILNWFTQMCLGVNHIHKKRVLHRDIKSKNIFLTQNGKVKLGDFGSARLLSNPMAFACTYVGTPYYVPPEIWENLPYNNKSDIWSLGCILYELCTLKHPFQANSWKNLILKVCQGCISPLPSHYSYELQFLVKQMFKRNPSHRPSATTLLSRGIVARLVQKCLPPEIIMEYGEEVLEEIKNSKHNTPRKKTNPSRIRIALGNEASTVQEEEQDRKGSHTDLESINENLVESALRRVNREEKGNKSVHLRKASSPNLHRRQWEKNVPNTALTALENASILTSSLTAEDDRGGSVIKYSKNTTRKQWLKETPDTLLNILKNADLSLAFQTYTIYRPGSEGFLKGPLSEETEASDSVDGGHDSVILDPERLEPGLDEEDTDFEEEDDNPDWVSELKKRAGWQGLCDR

NEK4 (human) = NEK4 (human) (UniProt P51957)
PAK1 (human) = PAK1 (human) (UniProt Q13153)
PAK3 (human) = PAK3 (human) (UniProt O75914)
PAK4 (human) = PAK4 (human) (UniProt O96013)
PBK (human) = PBK (human) (UniProt Q96KB5)
PRKD3 (human) = PRKD3 (human) (UniProt O94806)
PRKX (human) = PRKX (human) (UniProt P51817)
RET (human) = RET (human) (UniProt P07949)
RET (human), sequence (P07949 whole entry, looked up): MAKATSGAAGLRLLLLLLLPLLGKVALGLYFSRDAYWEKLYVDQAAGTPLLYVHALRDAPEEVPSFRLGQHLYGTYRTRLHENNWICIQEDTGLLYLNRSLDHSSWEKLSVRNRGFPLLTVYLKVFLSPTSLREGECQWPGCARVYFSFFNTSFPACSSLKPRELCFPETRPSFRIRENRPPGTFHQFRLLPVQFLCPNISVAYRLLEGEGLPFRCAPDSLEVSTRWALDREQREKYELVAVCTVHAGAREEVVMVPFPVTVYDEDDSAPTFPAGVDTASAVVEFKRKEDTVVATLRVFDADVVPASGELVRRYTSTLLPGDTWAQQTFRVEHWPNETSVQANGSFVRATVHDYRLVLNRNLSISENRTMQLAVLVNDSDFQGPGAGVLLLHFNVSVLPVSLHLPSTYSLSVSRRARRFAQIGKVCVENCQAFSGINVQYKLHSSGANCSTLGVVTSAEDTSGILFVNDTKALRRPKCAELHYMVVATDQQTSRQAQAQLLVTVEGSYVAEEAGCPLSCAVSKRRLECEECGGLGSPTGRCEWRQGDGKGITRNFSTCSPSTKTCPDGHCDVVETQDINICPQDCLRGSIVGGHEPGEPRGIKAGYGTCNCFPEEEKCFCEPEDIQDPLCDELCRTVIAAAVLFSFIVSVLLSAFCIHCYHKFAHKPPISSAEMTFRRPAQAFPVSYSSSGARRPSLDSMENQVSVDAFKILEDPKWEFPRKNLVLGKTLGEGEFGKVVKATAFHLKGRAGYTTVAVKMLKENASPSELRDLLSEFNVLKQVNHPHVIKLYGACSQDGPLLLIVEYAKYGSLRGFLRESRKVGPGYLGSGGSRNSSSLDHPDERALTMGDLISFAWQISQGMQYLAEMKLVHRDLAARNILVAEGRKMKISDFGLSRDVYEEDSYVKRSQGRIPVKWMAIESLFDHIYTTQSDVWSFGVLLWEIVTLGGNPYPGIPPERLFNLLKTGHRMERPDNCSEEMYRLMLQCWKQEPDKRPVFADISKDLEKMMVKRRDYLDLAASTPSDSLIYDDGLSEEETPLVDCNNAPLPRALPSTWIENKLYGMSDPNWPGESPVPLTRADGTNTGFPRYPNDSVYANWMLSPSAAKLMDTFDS

[1] = system: SGK1 (human), O00141 [S422D]
SGK1 (human), O00141 [S422D], sequence (O00141 whole entry S422D, looked up): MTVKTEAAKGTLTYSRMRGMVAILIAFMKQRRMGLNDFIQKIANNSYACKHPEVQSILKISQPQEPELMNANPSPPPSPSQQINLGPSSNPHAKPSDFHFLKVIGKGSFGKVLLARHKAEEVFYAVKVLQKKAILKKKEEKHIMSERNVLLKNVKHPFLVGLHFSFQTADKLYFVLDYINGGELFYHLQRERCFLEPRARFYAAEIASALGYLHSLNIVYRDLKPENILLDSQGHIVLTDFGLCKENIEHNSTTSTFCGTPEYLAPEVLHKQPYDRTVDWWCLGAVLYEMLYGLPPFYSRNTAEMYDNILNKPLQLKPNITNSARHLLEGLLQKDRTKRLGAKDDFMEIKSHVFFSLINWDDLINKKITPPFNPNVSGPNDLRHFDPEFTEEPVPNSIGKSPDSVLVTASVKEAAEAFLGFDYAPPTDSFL

SRC (human) = SRC (human) (UniProt P12931)
STK24 (human) = STK24 (human) (UniProt Q9Y6E0)
STK33 (human) = STK33 (human) (UniProt Q9BYT3)
SYK (human) = SYK (human) (UniProt P43405)
TAOK2 (human) = TAOK2 (human) (UniProt Q9UL54)
TGFBR1 (human) = TGFBR1 (human) (UniProt P36897)
TGFBR2 (human) = TGFBR2 (human) (UniProt P37173)
TGFBR2 (human), sequence (P37173 whole entry, looked up): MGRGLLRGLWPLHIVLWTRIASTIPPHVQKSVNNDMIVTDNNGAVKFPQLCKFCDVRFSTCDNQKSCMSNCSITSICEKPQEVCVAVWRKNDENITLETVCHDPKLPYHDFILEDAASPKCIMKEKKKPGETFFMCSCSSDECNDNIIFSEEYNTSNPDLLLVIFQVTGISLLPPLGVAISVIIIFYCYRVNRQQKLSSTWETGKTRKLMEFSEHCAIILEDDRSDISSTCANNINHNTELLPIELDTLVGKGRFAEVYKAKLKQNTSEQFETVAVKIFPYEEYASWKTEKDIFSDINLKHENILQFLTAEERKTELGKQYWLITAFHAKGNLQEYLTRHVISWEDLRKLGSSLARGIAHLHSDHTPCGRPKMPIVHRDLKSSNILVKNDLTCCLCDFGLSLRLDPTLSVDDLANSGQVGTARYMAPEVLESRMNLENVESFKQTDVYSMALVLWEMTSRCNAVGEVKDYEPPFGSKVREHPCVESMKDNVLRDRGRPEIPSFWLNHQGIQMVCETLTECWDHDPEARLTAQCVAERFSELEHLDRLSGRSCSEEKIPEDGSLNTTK

TNK2 (human) = TNK2 (human) (UniProt Q07912)

SMILES: O=c1c(-c2ccc(F)cc2)c(-c2ccncc2)[nH]n1-c1ccc(Cl)cc1
- residual activity (ADRBK2 (human)): 95%
- residual activity (AKT3 (human)): 94.3%
- residual activity (CAMK1 (human)): 94.4%
- residual activity (CAMK2A (human)): 86.9%
- residual activity (CDK6 CCND1 (human)): 92.3%
- residual activity (CLK2 (human)): 99%
- residual activity (CSNK1E (human)): 35%
- residual activity (DCLK2 (human)): 99.9%
- residual activity (DSTYK (human)): 92.9%
- residual activity (EPHA1 (human)): 93.1%
- residual activity (GSG2 (human)): 96.5%
- residual activity (INSR (human)): 110%
- residual activity (IRAK4 (human)): 81.9%
- residual activity (LTK (human)): 75.5%
- residual activity (LYN (human)): 97.5% and 99.7%
- residual activity (MAP3K3 (human)): 96.2%
- residual activity (MAP3K7 TAB1 (human)): 100%
- residual activity (MAP4K2 (human)): 87.7%
- residual activity (MAPK10 (human)): 97.1%
- residual activity (MAPK9 (human)): 6.07%
- residual activity (MAPKAPK2 (human)): 98.5%
- residual activity (MELK (human)): 86.5%
- residual activity (MUSK (human)): 102%
- residual activity (MYLK (human)): 101%
- residual activity (NEK3 (human)): 100%
- residual activity (NEK4 (human)): 93.9%
- residual activity (PAK1 (human)): 92.4%
- residual activity (PAK3 (human)): 98.3%
- residual activity (PAK4 (human)): 82%
- residual activity (PBK (human)): 87.7%
- residual activity (PRKD3 (human)): 74.5%
- residual activity (PRKX (human)): 97%
- residual activity (RET (human)): 99.6%
- residual activity [1]: 97.3%
- residual activity (SRC (human)): 91.6%
- residual activity (STK24 (human)): 111%
- residual activity (STK33 (human)): 101%
- residual activity (SYK (human)): 98.9%
- residual activity (TAOK2 (human)): 101%
- residual activity (TGFBR1 (human)): 101%
- residual activity (TGFBR2 (human)): 97.7%
- residual activity (TNK2 (human)): 91.2%

SMILES: CCCCc1c(-c2ccc(O)cc2)[nH]c2nccnc12
- residual activity (ADRBK2 (human)): 96.2%
- residual activity (AKT3 (human)): 95.8%
- residual activity (CAMK1 (human)): 92.5%
- residual activity (CAMK2A (human)): 97.8%
- residual activity (CDK6 CCND1 (human)): 61.6%
- residual activity (CLK2 (human)): 76.4%
- residual activity (CSNK1E (human)): 102%
- residual activity (DCLK2 (human)): 99.7%
- residual activity (DSTYK (human)): 88.9%
- residual activity (EPHA1 (human)): 68.8%
- residual activity (GSG2 (human)): 65.3%
- residual activity (INSR (human)): 99.6%
- residual activity (IRAK4 (human)): 159%
- residual activity (LTK (human)): 84.1%
- residual activity (LYN (human)): 106% and 87.3%
- residual activity (MAP3K3 (human)): 127%
- residual activity (MAP3K7 TAB1 (human)): 80.3%
- residual activity (MAP4K2 (human)): 28.2%
- residual activity (MAPK10 (human)): 100%
- residual activity (MAPK9 (human)): 90.2%
- residual activity (MAPKAPK2 (human)): 92.6%
- residual activity (MELK (human)): 82.5%
- residual activity (MUSK (human)): 82%
- residual activity (MYLK (human)): 101%
- residual activity (NEK3 (human)): 103%
- residual activity (NEK4 (human)): 82.2%
- residual activity (PAK1 (human)): 81.4%
- residual activity (PAK3 (human)): 97.7%
- residual activity (PAK4 (human)): 108%
- residual activity (PBK (human)): 75.6%
- residual activity (PRKD3 (human)): 67.4%
- residual activity (PRKX (human)): 110%
- residual activity (RET (human)): 52.6%
- residual activity [1]: 88.1%
- residual activity (SRC (human)): 65.2%
- residual activity (STK24 (human)): 83.6%
- residual activity (STK33 (human)): 80.8%
- residual activity (SYK (human)): 53.5%
- residual activity (TAOK2 (human)): 62.7%
- residual activity (TGFBR1 (human)): 100%
- residual activity (TGFBR2 (human)): 55%
- residual activity (TNK2 (human)): 49.9%
